target: hKIF18A (1-374) (Homo sapiens (Human), UniProt Q8NI77); experiment: Inhibition of KIF18A microtubule-dependent ATPase activity (ADP-Glo); type: biochemical; conditions: 4 nM hKIF18A (1-374)
Method: Test compounds were plated in a 3× dilution scheme in a 384-well plate. Assay buffer: 80 mM PIPES (pH 6.9), 1 mM MgCl2, 75 mM KCl, 1 mM EGTA, 1 mM DTT, 0.01% BSA, 0.005% Tween-20, 1 μM Taxol in H2O. […] After incubation at room temperature for 30 min, 2.5 μL of microtubule mix was added [0.2 mg/mL pre-formed microtubules, 2.0 mM ATP in assay buffer], the plate was centrifuged for 30 s and then incubated at 28° C. for 60 min. 5 μL of Promega® ADP-Glo Max R1 was added, the plate was centrifuged for 30 s, and the mixture incubated for 4 h at room temperature. 10 μL of Promega® ADP-Glo Max R2 was added, the plate centrifuged for 30 s, and incubated for 60 min at room temperature. Luminescence was measured with an Envision plate reader, and % Inhibition was calculated for each well as: ([max−min]−[test−min])/[max−min]. IC50 values were calculated from concentration vs. % Inhibition data via a four-parameter variable slope model.

Sequence of hKIF18A (1-374) (Q8NI77 1-374): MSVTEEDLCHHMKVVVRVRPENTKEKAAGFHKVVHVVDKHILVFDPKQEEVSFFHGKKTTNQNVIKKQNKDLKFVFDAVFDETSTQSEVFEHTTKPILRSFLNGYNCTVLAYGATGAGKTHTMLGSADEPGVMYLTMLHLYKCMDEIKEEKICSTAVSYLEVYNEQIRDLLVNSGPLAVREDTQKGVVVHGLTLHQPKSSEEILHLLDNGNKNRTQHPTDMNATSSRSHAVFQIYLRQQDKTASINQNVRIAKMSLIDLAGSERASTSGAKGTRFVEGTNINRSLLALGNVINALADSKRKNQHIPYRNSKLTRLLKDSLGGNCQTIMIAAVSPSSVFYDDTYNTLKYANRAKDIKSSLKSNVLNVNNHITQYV

Point of comparison: `Cc1cc(-c2cn(-c3ccc(NS(=O)(=O)CCO)cc3N3CCC4(CC3)CC4)nn2)nc(N2CC3CC3C2)n1` (centres unmarked) [Compound 99, N-(4-(4-(2-(3-azabicyclo[3.1.0]hexan-3-yl)-6-methylpyrimidin-4-yl)-1H-1,2,3-triazol-1-yl)-3-(6-azaspiro[2.5]octan-6-yl)phenyl)-2-hydroxyethane-1-sulfonamide], IC50 8.1 nM. Against it:
- O=S(=O)(CCO)Nc1ccc(-n2cc(-c3ccc(F)c(N4CCCCO4)n3)nn2)c(N2CCC3(CC2)CC3)c1 [Compound 154, N-(4-(4-(5-fluoro-6-(1,2-oxazinan-2-yl)pyridin-2-yl)-1H-1,2,3-triazol-1-yl)-3-(6-azaspiro[2.5]octan-6-yl)phenyl)-2-hydroxyethane-1-sulfonamide] — within 1.5-fold, 7.1 nM
- O=S(=O)(CCO)Nc1ccc(-n2cc(-c3ccn(C4CCC(F)(F)CC4)n3)nn2)c(N2CCCCC2)c1 [Compound 76, N-(4-(4-(1-(4,4-difluorocyclohexyl)-1H-pyrazol-3-yl)-1H-1,2,3-triazol-1-yl)-3-(piperidin-1-yl)phenyl)-2-hydroxyethane-1-sulfonamide] — 3.6-fold higher, 29 nM
- O=S(=O)(CCO)Nc1ccc(-n2cc(-c3ccn(CC4CCC4)n3)nn2)c(N2CCC3(CC2)CC3)c1 [Compound 77, N-(4-(4-(1-(cyclobutylmethyl)-1H-pyrazol-3-yl)-1H-1,2,3-triazol-1-yl)-3-(6-azaspiro[2.5]octan-6-yl)phenyl)-2-hydroxyethane-1-sulfonamide] — within 1.5-fold, 12 nM
- Cc1cc(-n2cc(-c3ccc(NS(=O)(=O)CCO)cc3N3CCC4(CC3)CC4)nn2)cc(N2CCC(F)(F)CC2)n1 [Compound 114] — 7.2-fold higher, 58 nM
- Cc1cc(-c2cnc(-c3ccc(NS(C)(=O)=O)cc3N3CCC4(CC3)CC4)[nH]2)nc(N2CCC(F)(F)CC2)c1 [Compound 28, N-(4-(5-(6-(4,4-difluoropiperidin-1-yl)-4-methylpyridin-2-yl)-1H-imidazol-2-yl)-3-(6-azaspiro[2.5]octan-6-yl)phenyl)methanesulfonamide] — 5.6-fold higher, 45 nM
- CS(=O)(=O)Nc1ccc(-n2cc(-c3cccc(N4CCC(F)(F)CC4)n3)nn2)c(N2CCCC2)c1 [Compound 16, N-(4-(4-(6-(4,4-difluoropiperidin-1-yl)pyridin-2-yl)-1H-1,2,3-triazol-1-yl)-3-(pyrrolidin-1-yl)phenyl)methanesulfonamide] — 140-fold higher, 1100 nM
- CC1CN(c2cccc(-c3cn(-c4ccc(NS(C)(=O)=O)cc4N4CCC5(CC4)CC5)nn3)n2)CCO1 (centres unmarked) [Compound 56, N-(4-(4-(6-(2-methylmorpholino)pyridin-2-yl)-1H-1,2,3-triazol-1-yl)-3-(6-azaspiro[2.5]octan-6-yl)phenyl)methanesulfonamide] — 1.6-fold higher, 13 nM
- Cc1cc(-c2cn(-c3ccc(NS(C)(=O)=O)cc3N3CCC4(CC3)CC4)nn2)nc(N2CCC(F)(F)CC2)c1 [Compound 14, N-(4-(4-(6-(4,4-difluoropiperidin-1-yl)-4-methylpyridin-2-yl)-1H-1,2,3-triazol-1-yl)-3-(6-azaspiro[2.5]octan-6-yl)phenyl)methanesulfonamide] — 4.8-fold higher, 39 nM
- O=S(=O)(CCO)Nc1ccc(-n2cc(-c3ccn(C4CCC(F)(F)CC4)n3)nn2)c(N2CCC3(CC2)CC3)c1 [Compound 84, N-(4-(4-(1-(4,4-difluorocyclohexyl)-1H-pyrazol-3-yl)-1H-1,2,3-triazol-1-yl)-3-(6-azaspiro[2.5]octan-6-yl)phenyl)-2-hydroxyethane-1-sulfonamide] — within 1.5-fold, 8.2 nM
- CCS(=O)(=O)Nc1ccc(-n2cc(-c3cc(C)cc(C(O)C4CCCC4)n3)nn2)c(N2CCC3(CC2)CC3)c1 (centres unmarked) [Compound 138, N-(4-(4-(6-(cyclopentyl(hydroxy)methyl)-4-methylpyridin-2-yl)-1H-1,2,3-triazol-1-yl)-3-(6-azaspiro[2.5]octan-6-yl)phenyl)ethanesulfonamide] — 3.2-fold higher, 26 nM
- CS(=O)(=O)Nc1ccc(-n2cc(-c3cccc(N4CC(F)(F)C4)n3)nn2)c(N2CCC3(CC2)CC3)c1 [Compound 60, N-(4-(4-(6-(3,3-difluoroazetidin-1-yl)pyridin-2-yl)-1H-1,2,3-triazol-1-yl)-3-(6-azaspiro[2.5]octan-6-yl)phenyl)methanesulfonamide] — within 1.5-fold, 6.5 nM
- CS(=O)(=O)Nc1ccc(-c2noc(-c3cccc(N4CCOCC4)n3)n2)c(N2CCC3(CC2)CC3)c1 [Compound 164, N-(4-(5-(6-morpholinopyridin-2-yl)-1,2,4-oxadiazol-3-yl)-3-(6-azaspiro[2.5]octan-6-yl)phenyl)methanesulfonamide] — higher, > 30000 nM
- Cc1cc(-c2cn(-c3ccc(NS(=O)(=O)CCO)cc3N3CCC4(CC3)CC4)nn2)nc(CN2CC(F)(F)C2)n1 [Compound 152, N-(4-(4-(2-((3,3-difluoroazetidin-1-yl)methyl)-6-methylpyrimidin-4-yl)-1H-1,2,3-triazol-1-yl)-3-(6-azaspiro[2.5]octan-6-yl)phenyl)-2-hydroxyethane-1-sulfonamide] — 1.7-fold higher, 14 nM
- CCS(=O)(=O)Nc1ccc(-n2cc(-c3c[n+]([O-])cc(N4CCC(F)(F)CC4)n3)nn2)c(N2CCC3(CC2)CC3)c1 [Compound 146, 3-(4,4-difluoropiperidin-1-yl)-5-(1-(4-(ethylsulfonamido)-2-(6-azaspiro[2.5]octan-6-yl)phenyl)-1H-1,2,3-triazol-4-yl)pyrazine 1-oxide] — 1.8-fold lower, 4.4 nM
- Cc1cc(-c2cn(-c3ccc(NS(=O)(=O)CCO)cc3N3CCC(C(F)F)CC3)nn2)nc(N2CCC(F)(F)CC2)c1 [Compound 104, N-(3-(4-(difluoromethyl)piperidin-1-yl)-4-(4-(6-(4,4-difluoropiperidin-1-yl)-4-methylpyridin-2-yl)-1H-1,2,3-triazol-1-yl)phenyl)-2-hydroxyethane-1-sulfonamide] — 1.9-fold higher, 15 nM
- O=S(=O)(CCO)Nc1ccc(-n2cc(-c3ccn(C4CCC4)n3)nn2)c(N2CCC3(CC2)CC3)c1 [Compound 82, N-(4-(4-(1-cyclobutyl-1H-pyrazol-3-yl)-1H-1,2,3-triazol-1-yl)-3-(6-azaspiro[2.5]octan-6-yl)phenyl)-2-hydroxyethane-1-sulfonamide] — 7.4-fold higher, 60 nM
- Cc1cc(-c2cnc(-c3ccc(NS(C)(=O)=O)cc3N3CCC4(CC3)CC4)[nH]2)nc(N2CCC(F)(F)CC2)n1 [Compound 26, N-(4-(5-(2-(4,4-difluoropiperidin-1-yl)-6-methylpyrimidin-4-yl)-1H-imidazol-2-yl)-3-(6-azaspiro[2.5]octan-6-yl)phenyl)methanesulfonamide] — 5.4-fold higher, 44 nM
- O=S(=O)(CCO)Nc1ccc(-n2cc(-c3ccc(F)c(N4CC5CC5C4)n3)nn2)c(N2CCC3(CC2)CC3)c1 (centres unmarked) [Compound 153, N-(4-(4-(6-(3-azabicyclo[3.1.0]hexan-3-yl)-5-fluoropyridin-2-yl)-1H-1,2,3-triazol-1-yl)-3-(6-azaspiro[2.5]octan-6-yl)phenyl)-2-hydroxyethane-1-sulfonamide] — 2-fold higher, 16 nM
- CCS(=O)(=O)Nc1ccc(-n2cc(-c3cc(C)cc(C(O)C4CCC4)n3)nn2)c(N2CCC3(CC2)CC3)c1 (centres unmarked) [Compound 133, N-(4-(4-(6-(cyclobutyl(hydroxy)methyl)-4-methylpyridin-2-yl)-1H-1,2,3-triazol-1-yl)-3-(6-azaspiro[2.5]octan-6-yl)phenyl)ethanesulfonamide] — within 1.5-fold, 12 nM

Source: patent US20230382889A1 (Volastra Therapeutics, Inc., priority 2022, published 2023)
